{
  "source": "patent US20130065868A1",
  "about": "“ANXIOYTIC MARCGRAVIACEAE COMPOSITIONS CONTAINING BETULINIC ACID, BETULINIC ACID DERIVATIVES, AND METHODS” (UNIVERSITY OF OTTAWA, priority 2002, published 2013)",
  "key": {"galanin GalR1": {"target": "galanin GalR1 (Homo sapiens, UniProt P47211)", "sequence (P47211 whole entry)": "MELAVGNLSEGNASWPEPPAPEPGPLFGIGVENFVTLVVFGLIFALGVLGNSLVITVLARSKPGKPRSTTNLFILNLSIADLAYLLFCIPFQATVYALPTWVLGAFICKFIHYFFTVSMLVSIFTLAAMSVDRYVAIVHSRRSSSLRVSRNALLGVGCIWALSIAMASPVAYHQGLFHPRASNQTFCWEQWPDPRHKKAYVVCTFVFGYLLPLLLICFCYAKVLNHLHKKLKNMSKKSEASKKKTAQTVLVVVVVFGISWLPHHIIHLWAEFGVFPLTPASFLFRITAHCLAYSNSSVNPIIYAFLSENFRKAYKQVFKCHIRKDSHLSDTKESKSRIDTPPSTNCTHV", "test": "MDS Panlabs screen: galanin GalR1", "type": "binding", "settings": "Peptides", "protocol": "(§1) Tests were conducted by MDS Panlabs to determine whether any of the classical neurotransmitter systems or the peptidergic systems thought to play a role in anxiety are affected by betulinic acid."}, "domaine D2": {"target": "domaine D2 (Homo sapiens, UniProt P14416)", "sequence (P14416 whole entry)": "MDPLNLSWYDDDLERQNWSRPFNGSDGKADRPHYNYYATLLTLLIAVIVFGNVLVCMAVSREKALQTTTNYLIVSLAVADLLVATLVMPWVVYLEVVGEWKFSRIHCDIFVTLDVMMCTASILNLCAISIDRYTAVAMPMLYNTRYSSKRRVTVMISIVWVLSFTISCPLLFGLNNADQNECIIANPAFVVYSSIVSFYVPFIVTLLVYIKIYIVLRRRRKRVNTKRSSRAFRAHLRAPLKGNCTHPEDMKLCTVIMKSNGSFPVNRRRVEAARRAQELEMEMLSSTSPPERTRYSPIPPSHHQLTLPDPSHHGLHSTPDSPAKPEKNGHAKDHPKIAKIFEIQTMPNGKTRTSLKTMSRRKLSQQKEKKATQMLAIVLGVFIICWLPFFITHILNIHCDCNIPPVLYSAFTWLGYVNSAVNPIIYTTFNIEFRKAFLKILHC", "test": "MDS Panlabs screen: D2", "type": "binding", "settings": "Catecholamines", "protocol": "as §1"}, "somatostatin": {"tested_on": "somatostatin", "test": "MDS Panlabs screen: somatostatin", "type": "binding", "settings": "Peptides", "protocol": "as §1"}, "opiate non-selective": {"tested_on": "opiate non-selective", "test": "MDS Panlabs screen: opiate non-selective", "type": "binding", "settings": "Peptides", "protocol": "as §1"}, "MAO A": {"target": "MAO A (Homo sapiens, UniProt P21397)", "sequence (P21397 whole entry, species assumed)": "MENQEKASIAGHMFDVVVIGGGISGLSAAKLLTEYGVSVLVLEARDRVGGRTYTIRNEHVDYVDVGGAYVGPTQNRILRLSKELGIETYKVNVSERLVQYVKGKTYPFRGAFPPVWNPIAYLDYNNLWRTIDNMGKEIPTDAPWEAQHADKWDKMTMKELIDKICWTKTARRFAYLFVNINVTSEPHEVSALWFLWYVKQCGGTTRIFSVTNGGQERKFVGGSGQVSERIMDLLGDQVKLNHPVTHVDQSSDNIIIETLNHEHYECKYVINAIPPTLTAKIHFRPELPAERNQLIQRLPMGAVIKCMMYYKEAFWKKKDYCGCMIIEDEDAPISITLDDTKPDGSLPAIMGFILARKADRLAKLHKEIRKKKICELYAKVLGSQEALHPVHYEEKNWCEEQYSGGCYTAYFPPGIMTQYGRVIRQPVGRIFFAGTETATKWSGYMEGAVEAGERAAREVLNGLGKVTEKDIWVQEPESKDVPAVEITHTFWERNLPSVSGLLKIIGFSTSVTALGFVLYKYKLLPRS", "test": "MDS Panlabs screen: MAO A", "type": "biochemical", "settings": "Catecholamines", "protocol": "as §1"}, "cannabinoid C131": {"target": "cannabinoid C131 (Homo sapiens, UniProt P21554)", "sequence (P21554 whole entry)": "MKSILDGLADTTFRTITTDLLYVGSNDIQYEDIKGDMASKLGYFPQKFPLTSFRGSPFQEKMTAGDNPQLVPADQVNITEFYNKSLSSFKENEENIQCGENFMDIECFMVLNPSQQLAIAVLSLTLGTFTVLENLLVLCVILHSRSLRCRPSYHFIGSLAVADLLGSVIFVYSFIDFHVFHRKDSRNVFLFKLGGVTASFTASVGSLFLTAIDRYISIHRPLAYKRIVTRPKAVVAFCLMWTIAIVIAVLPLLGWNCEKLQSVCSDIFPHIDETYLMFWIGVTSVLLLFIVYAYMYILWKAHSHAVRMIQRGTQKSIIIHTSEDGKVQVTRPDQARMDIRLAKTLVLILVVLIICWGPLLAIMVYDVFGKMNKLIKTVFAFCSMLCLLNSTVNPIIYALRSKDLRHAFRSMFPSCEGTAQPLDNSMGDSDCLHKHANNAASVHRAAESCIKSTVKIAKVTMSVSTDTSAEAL", "test": "MDS Panlabs screen: cannabinoid (first subtype)", "type": "binding", "settings": "Peptides", "protocol": "as §1"}, "Sigma non-selective": {"tested_on": "Sigma non-selective", "test": "MDS Panlabs screen: Sigma non-selective", "type": "binding", "protocol": "as §1"}, "Histamine H1": {"target": "Histamine H1 (Homo sapiens, UniProt P35367)", "test": "MDS Panlabs screen: Histamine H1", "type": "binding", "protocol": "as §1"}, "COX-2": {"target": "COX-2 (Homo sapiens, UniProt P35354)", "sequence (P35354 18-604)": "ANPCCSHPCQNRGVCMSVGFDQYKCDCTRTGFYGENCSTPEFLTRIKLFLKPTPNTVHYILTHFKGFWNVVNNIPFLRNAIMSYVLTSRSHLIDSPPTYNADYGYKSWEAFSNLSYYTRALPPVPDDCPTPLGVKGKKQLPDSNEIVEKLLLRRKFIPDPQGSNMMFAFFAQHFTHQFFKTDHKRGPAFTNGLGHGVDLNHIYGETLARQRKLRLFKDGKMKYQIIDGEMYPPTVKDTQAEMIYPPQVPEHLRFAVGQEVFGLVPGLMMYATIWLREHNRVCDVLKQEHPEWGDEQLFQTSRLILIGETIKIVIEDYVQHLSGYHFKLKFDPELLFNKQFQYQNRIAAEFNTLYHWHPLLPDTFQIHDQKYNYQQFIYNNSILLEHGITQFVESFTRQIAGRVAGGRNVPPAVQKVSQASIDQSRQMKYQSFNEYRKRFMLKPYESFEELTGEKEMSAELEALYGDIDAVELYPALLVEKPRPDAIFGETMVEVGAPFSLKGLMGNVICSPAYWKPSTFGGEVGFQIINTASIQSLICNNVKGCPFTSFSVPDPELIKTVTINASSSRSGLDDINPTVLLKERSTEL", "test": "MDS Panlabs screen: cyclooxygenase COX-2", "type": "biochemical", "protocol": "as §1"}, "tachykinin NK1": {"target": "tachykinin NK1 (Homo sapiens, UniProt P25103)", "test": "MDS Panlabs screen: tachykinin NK1", "type": "binding", "settings": "Peptides", "protocol": "as §1"}, "MAO B": {"target": "MAO B (Homo sapiens, UniProt P27338)", "sequence (P27338 whole entry)": "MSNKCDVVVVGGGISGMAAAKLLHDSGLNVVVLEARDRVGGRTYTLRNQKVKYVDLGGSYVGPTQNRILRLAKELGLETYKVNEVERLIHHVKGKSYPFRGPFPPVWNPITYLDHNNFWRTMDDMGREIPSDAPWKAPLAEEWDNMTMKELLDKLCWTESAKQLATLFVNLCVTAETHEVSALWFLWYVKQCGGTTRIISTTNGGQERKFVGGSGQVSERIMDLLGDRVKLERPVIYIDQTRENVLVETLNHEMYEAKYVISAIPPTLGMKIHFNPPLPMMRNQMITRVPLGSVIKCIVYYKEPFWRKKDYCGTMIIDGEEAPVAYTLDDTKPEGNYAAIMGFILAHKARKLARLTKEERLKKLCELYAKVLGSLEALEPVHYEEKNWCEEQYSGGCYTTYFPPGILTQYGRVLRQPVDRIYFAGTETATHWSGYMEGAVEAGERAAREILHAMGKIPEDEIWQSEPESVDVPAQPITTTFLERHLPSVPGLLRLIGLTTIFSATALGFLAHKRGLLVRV", "test": "MDS Panlabs screen: MAO B", "type": "biochemical", "settings": "Catecholamines", "protocol": "as §1"}, "EGF": {"target": "EGF (Homo sapiens, UniProt P00533)", "test": "MDS Panlabs screen: EGF", "type": "binding", "settings": "Peptides", "protocol": "as §1"}, "GLP-1": {"target": "GLP-1 (Homo sapiens, UniProt P43220)", "sequence (P43220 24-463)": "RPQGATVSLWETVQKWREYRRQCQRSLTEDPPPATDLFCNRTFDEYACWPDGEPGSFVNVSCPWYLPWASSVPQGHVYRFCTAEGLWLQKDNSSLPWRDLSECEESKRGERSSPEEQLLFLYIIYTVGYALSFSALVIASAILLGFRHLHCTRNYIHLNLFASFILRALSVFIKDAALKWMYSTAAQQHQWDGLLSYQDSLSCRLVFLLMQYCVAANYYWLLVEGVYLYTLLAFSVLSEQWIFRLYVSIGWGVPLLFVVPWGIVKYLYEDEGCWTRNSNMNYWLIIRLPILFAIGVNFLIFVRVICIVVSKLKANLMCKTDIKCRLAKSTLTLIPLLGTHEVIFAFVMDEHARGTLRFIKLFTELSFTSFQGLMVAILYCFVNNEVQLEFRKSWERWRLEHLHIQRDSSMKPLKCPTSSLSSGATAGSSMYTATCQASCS", "test": "MDS Panlabs screen: GLP-1", "type": "binding", "settings": "Peptides", "protocol": "as §1"}, "[1]": {"test": "Weight gain over chronic treatment", "type": "in vivo, rat", "settings": "rats, chronic 0.5 mg/kg daily orally (FIG. 12)"}, "Histamine H2": {"target": "Histamine H2 (Homo sapiens, UniProt P25021)", "test": "MDS Panlabs screen: Histamine H2", "type": "binding", "protocol": "as §1"}, "[2]": {"settings": "general description of the substance; cited from earlier work"}, "Glutamate non-selective": {"tested_on": "Glutamate non-selective", "test": "MDS Panlabs screen: Glutamate non-selective", "type": "binding", "settings": "Gabaergic", "protocol": "as §1"}, "neuropeptide Y1": {"target": "neuropeptide Y1 (Homo sapiens, UniProt P25929)", "test": "MDS Panlabs screen: neuropeptide Y1", "type": "binding", "settings": "Peptides", "protocol": "as §1"}, "Sprague-Dawley rats": {"tested_on": "Sprague-Dawley rats", "test": "Fear-potentiated startle paradigm in rats", "type": "in vivo, rat", "from_the_text": "In this anxiety/fear paradigm, rats are first trained to associate a neutral stimulus (a light) with an aversive stimulus (an electric shock to the foot). […] However, when the acoustic stimulus is preceded by a fear cue (the light in this case), there is potentiation of their natural startle response. This potentiation of startle responses is thought to result from a classically conditioned increase in fear. Anxiolysis is inferred when there is a reduction in the magnitude of the fear-potentiated startle response.\nThe fear potentiated startle equipment (Med-Associates, St-Albans, Vt.) constituted (1) a pressure-sensitive platform upon which the animal is placed (in an enclosure with shock-grid floor), (2) Speakers and amplifier, to deliver acoustic stimulus, (3) Computer controlled light cue, and (4) a computerized interface to deliver the auditory and/or visual stimuli, and to record the magnitude of startle detected by the platform. The whole set up is housed in a sound attenuated and darkened chamber.\nThe experiment involved three phases; a training phase, a screening phase and the testing phase. […] The second or screening phase involved identifying the rats that learnt to associate the light cue with the shock, which was assessed by measuring their startle response in the absence and the presence of the fear cue. […]"}, "galanin GALR2": {"target": "galanin GALR2 (Homo sapiens, UniProt O43603)", "sequence (O43603 whole entry)": "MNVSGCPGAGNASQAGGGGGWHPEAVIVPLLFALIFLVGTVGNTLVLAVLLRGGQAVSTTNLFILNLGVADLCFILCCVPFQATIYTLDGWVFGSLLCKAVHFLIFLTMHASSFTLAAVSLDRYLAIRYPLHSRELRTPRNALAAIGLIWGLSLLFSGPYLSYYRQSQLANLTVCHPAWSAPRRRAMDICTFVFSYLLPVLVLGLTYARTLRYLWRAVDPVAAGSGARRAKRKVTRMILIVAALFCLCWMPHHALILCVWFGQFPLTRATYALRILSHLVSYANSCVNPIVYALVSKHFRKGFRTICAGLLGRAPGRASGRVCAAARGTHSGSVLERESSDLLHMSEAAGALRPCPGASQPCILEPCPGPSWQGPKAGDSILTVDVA", "test": "MDS Panlabs screen: galanin GALR2", "type": "binding", "settings": "Peptides", "protocol": "as §1"}, "GABAA, agonist site": {"tested_on": "GABAA, agonist site", "test": "MDS Panlabs screen: GABAA, agonist site", "type": "binding", "settings": "Gabaergic", "protocol": "as §1"}, "[3]": {"test": "Elevated plus maze, betulinic acid vs structurally related compounds (Example 11)", "type": "in vivo", "settings": "0.5 mg/kg (FIG. 7)", "from_the_text": "This example compares the anxiolytic activity of betulinic acid and some other structurally related compounds. Results are illustrated in FIG. 7."}, "GABAB": {"target": "GABAB (Homo sapiens, UniProt Q9UBS5)", "test": "MDS Panlabs screen: GABAB", "type": "binding", "settings": "Gabaergic", "protocol": "as §1"}, "VIP1": {"target": "VIP1 (Homo sapiens, UniProt P32241)", "sequence (P32241 31-457)": "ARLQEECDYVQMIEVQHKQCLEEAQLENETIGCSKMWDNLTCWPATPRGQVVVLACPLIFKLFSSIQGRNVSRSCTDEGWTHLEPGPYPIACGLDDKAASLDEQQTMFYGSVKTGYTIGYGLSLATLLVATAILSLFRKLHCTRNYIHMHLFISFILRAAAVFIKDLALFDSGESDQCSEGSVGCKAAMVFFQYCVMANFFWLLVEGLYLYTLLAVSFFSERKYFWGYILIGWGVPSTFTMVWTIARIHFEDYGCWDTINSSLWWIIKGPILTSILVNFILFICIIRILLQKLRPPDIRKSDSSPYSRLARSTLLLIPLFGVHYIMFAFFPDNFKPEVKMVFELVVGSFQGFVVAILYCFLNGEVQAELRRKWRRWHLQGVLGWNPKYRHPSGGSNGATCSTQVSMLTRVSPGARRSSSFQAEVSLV", "test": "MDS Panlabs screen: VIP1", "type": "binding", "settings": "Peptides", "protocol": "as §1"}, "BALB/c mice": {"tested_on": "BALB/c mice", "test": "Elevated plus maze test in BALB/c mice", "type": "in vivo, mouse", "settings": "vs peanut oil only control", "from_the_text": "BALB/c mice represent a strain of mice that is very stress-reactive.\nMice received dosages of betulinic acid in accordance with the previous example."}, "tachykinin NK3": {"target": "tachykinin NK3 (Homo sapiens, UniProt P29371)", "sequence (P29371 whole entry)": "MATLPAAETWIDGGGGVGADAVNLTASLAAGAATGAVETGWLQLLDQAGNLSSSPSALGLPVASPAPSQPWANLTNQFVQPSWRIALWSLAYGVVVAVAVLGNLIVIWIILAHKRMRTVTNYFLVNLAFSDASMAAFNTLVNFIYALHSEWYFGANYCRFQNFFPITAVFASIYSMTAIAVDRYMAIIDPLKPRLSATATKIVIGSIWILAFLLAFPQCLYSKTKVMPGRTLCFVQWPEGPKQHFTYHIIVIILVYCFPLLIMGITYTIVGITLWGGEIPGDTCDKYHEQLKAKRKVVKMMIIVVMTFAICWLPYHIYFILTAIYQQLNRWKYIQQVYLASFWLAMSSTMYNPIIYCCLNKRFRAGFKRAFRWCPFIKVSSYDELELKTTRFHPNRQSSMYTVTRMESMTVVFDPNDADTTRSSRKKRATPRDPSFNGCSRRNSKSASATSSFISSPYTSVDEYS", "test": "MDS Panlabs screen: tachykinin NK3", "type": "binding", "settings": "Peptides", "protocol": "as §1"}},
  "data": [
    {"molecule": "C=C(C)[C@@H]1CC[C@]2(C(=O)O)CC[C@]3(C)C(CC[C@@H]4[C@@]5(C)CC[C@H](O)C(C)(C)[C@@H]5CC[C@]43C)[C@@H]12", "note": "(stereo partly drawn) [betulinic acid, Betulinic acid]", "values": [
      {"measurement": "affected by betulinic acid", "setting": "galanin GalR1", "result": "none of the following neurotransmitters or proteins were affected"},
      {"measurement": "affected by betulinic acid", "setting": "domaine D2", "result": "none of the following neurotransmitters or proteins were affected"},
      {"measurement": "affected by betulinic acid", "setting": "somatostatin", "result": "none of the following neurotransmitters or proteins were affected"},
      {"measurement": "affected by betulinic acid", "setting": "opiate non-selective", "result": "none of the following neurotransmitters or proteins were affected"},
      {"measurement": "affected by betulinic acid", "setting": "MAO A", "result": "none of the following neurotransmitters or proteins were affected"},
      {"measurement": "affected by betulinic acid", "setting": "cannabinoid C131", "result": "none of the following neurotransmitters or proteins were affected"},
      {"measurement": "affected by betulinic acid", "setting": "Sigma non-selective", "result": "none of the following neurotransmitters or proteins were affected"},
      {"measurement": "affected by betulinic acid", "setting": "Histamine H1", "result": "none of the following neurotransmitters or proteins were affected"},
      {"measurement": "affected by betulinic acid", "setting": "COX-2", "result": "none of the following neurotransmitters or proteins were affected"},
      {"measurement": "affected by betulinic acid", "setting": "tachykinin NK1", "result": "none of the following neurotransmitters or proteins were affected"},
      {"measurement": "affected by betulinic acid", "setting": "MAO B", "result": "none of the following neurotransmitters or proteins were affected"},
      {"measurement": "affected by betulinic acid", "setting": "EGF", "result": "none of the following neurotransmitters or proteins were affected"},
      {"measurement": "affected by betulinic acid", "setting": "GLP-1", "result": "none of the following neurotransmitters or proteins were affected"},
      {"measurement": "effect of chronic drug treatment on weight gain", "setting": "[1]", "result": "did not seem to affect weight gain in a significant manner"},
      {"measurement": "affected by betulinic acid", "setting": "Histamine H2", "result": "none of the following neurotransmitters or proteins were affected"},
      {"measurement": "solubility (solvents)", "setting": "[2]", "result": "soluble in water, ethanol, ether, acetone, benzene, and chloroform"},
      {"measurement": "affected by betulinic acid", "setting": "Glutamate non-selective", "result": "none of the following neurotransmitters or proteins were affected"},
      {"measurement": "affected by betulinic acid", "setting": "neuropeptide Y1", "result": "none of the following neurotransmitters or proteins were affected"},
      {"measurement": "startle response in the presence of the fear-cue", "setting": "Sprague-Dawley rats; 1 mg/kg in peanut oil orally (gavage), 45-60 min after treatment (FIG. 4)", "result": "significantly attenuated the startle response in the presence of the fear-cue"},
      {"measurement": "difference in startle amplitude (presence minus absence of the fear cue)", "setting": "Sprague-Dawley rats; 1 mg/kg orally (gavage), vs peanut oil control (FIG. 4)", "result": "much lower"},
      {"measurement": "affected by betulinic acid", "setting": "galanin GALR2", "result": "none of the following neurotransmitters or proteins were affected"},
      {"measurement": "affected by betulinic acid", "setting": "GABAA, agonist site", "result": "none of the following neurotransmitters or proteins were affected"},
      {"measurement": "proportion of time spent in the open arm of the elevated plus maze", "setting": "[3]", "result": "increased"},
      {"measurement": "affected by betulinic acid", "setting": "GABAB", "result": "none of the following neurotransmitters or proteins were affected"},
      {"measurement": "affected by betulinic acid", "setting": "VIP1", "result": "none of the following neurotransmitters or proteins were affected"},
      {"measurement": "number of entries on the open arm of the elevated plus maze", "setting": "BALB/c mice; 0.25 mg/kg i.p.", "result": "significantly increased"},
      {"measurement": "proportion of time spent on the open arm of the elevated plus maze", "setting": "BALB/c mice; 0.25 mg/kg i.p.", "result": "significantly increased"},
      {"measurement": "number of entries on the open arm of the elevated plus maze", "setting": "BALB/c mice; 2.5 mg/kg i.p.", "result": "significantly increased"},
      {"measurement": "proportion of time spent on the open arm of the elevated plus maze", "setting": "BALB/c mice; 2.5 mg/kg i.p.", "result": "significantly increased"},
      {"measurement": "affected by betulinic acid", "setting": "tachykinin NK3", "result": "none of the following neurotransmitters or proteins were affected"}
    ]}
  ]
}
